From US10058550B2, “Methods of treating heart failure” (priority 2015, dated 2018)

Each molecule was assayed against human APJ receptor (Homo sapiens (Human), UniProt P35414) (assay: biochemical). Settings: read-out: Activity hAPJ SPA EC50 IP.
Format: biochemical
Procedure, shortened: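 Agonist-stimulated [35S]GTPγS (0.2 nM) binding was read by SPA after 90 min at room temperature. Buffer: 20 mM HEPES pH 7.5 with 5 mM MgCl2, 200 mM NaCl, 3 μM GDP, 0.1% BSA; membranes were from a stable human APJ CHO line. EC50 values are averages of independent runs, fitted by non-linear regression.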

human APJ receptor, sequence (P35414 whole entry): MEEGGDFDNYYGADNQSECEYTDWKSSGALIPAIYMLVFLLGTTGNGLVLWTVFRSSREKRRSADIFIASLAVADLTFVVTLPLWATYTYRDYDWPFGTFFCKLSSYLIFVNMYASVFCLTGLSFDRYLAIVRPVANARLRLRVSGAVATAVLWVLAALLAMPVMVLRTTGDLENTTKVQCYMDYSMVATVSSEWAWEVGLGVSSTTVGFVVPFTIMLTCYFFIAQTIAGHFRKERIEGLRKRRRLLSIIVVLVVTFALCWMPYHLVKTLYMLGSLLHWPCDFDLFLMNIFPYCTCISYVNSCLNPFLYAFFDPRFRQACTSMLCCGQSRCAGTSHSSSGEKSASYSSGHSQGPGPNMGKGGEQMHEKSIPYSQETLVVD

Row | Compound | EC50 [nM]
1 | COc1cccc(-c2nnc(NS(=O)(=O)[C@H](C)[C@H](OC)c3ccc(C#N)cc3C#N)n2-c2c(OC)cccc2OC)n1 (single isomer, unassigned) [Example 476.0, (1R,2R)-1-(2,4-dicyanophenyl)-N-(4-(2,6-dimethoxyphenyl)-5-(6-methoxy-2-pyridinyl)-4H-1,2,4-triazol-3-yl)-1-methoxy-2-propanesulfonamide or (1S,2S)-1-(2,4-dicyanophenyl)-N-(4-(2,6-dimethoxyphenyl)-5-(6-methoxy-2-pyridinyl)-4H-1,2,4-triazol-3-yl)-1-methoxy-2-propanesulfonamide] | 0.55
2 | COc1cccc(-c2nnc(NS(=O)(=O)C[C@@H](O)c3ccc(C#N)cc3S(C)(=O)=O)n2-c2c(OC)cccc2OC)n1 (single isomer, unassigned) [Example 482.0, (2S)-2-(4-cyano-2-(methylsulfonyl)phenyl)-N-(4-(2,6-dimethoxyphenyl)-5-(6-methoxy-2-pyridinyl)-4H-1,2,4-triazol-3-yl)-2-hydroxyethanesulfonamide or (2R)-2-(4-cyano-2-(methylsulfonyl)phenyl)-N-(4-(2,6-dimethoxyphenyl)-5-(6-methoxy-2-pyridinyl)-4H-1,2,4-triazol-3-yl)-2-hydroxyethanesulfonamide] | 0.2
3 | COc1cccc(-c2nnc(NS(=O)(=O)C[C@H](OC)c3ccc(C#N)cc3S(C)(=O)=O)n2-c2c(OC)cccc2OC)n1 (single isomer, unassigned) [Example 485.0, (2R)-2-(4-cyano-2-(methylsulfonyl)phenyl)-N-(4-(2,6-dimethoxyphenyl)-5-(6-methoxy-2-pyridinyl)-4H-1,2,4-triazol-3-yl)-2-methoxyethanesulfonamide or (2S)-2-(4-cyano-2-(methylsulfonyl)phenyl)-N-(4-(2,6-dimethoxyphenyl)-5-(6-methoxy-2-pyridinyl)-4H-1,2,4-triazol-3-yl)-2-methoxyethanesulfonamide] | 0.098
4 | COc1cccc(-c2nnc(NS(=O)(=O)C[C@H](OC)c3ccc(C#N)cc3S(C)(=O)=O)n2-c2c(OC)cccc2OC)n1 (single isomer, unassigned) [Example 486.0, (2R)-2-(4-cyano-2-(methylsulfonyl)phenyl)-N-(4-(2,6-dimethoxyphenyl)-5-(6-methoxy-2-pyridinyl)-4H-1,2,4-triazol-3-yl)-2-methoxyethanesulfonamide or (2S)-2-(4-cyano-2-(methylsulfonyl)phenyl)-N-(4-(2,6-dimethoxyphenyl)-5-(6-methoxy-2-pyridinyl)-4H-1,2,4-triazol-3-yl)-2-methoxyethanesulfonamide] | 0.073
5 | COc1cccc(OC)c1-n1c(NS(=O)(=O)C[C@H](O)c2ccc(C#N)cc2S(C)(=O)=O)nnc1-c1cncc(C)c1 (single isomer, unassigned) [Example 491.0, (2R)-2-(4-cyano-2-(methylsulfonyl)phenyl)-N-(4-(2,6-dimethoxyphenyl)-5-(5-methyl-3-pyridinyl)-4H-1,2,4-triazol-3-yl)-2-hydroxyethanesulfonamide or (2S)-2-(4-cyano-2-(methylsulfonyl)phenyl)-N-(4-(2,6-dimethoxyphenyl)-5-(5-methyl-3-pyridinyl)-4H-1,2,4-triazol-3-yl)-2-hydroxyethanesulfonamide] | 0.33
6 | COc1cccc(OC)c1-n1c(NS(=O)(=O)C[C@H](O)c2ccc(C#N)cc2S(C)(=O)=O)nnc1-c1cncc(C)c1 (single isomer, unassigned) [Example 492.0, (2R)-2-(4-cyano-2-(methylsulfonyl)phenyl)-N-(4-(2,6-dimethoxyphenyl)-5-(5-methyl-3-pyridinyl)-4H-1,2,4-triazol-3-yl)-2-hydroxyethanesulfonamide or (2S)-2-(4-cyano-2-(methylsulfonyl)phenyl)-N-(4-(2,6-dimethoxyphenyl)-5-(5-methyl-3-pyridinyl)-4H-1,2,4-triazol-3-yl)-2-hydroxyethanesulfonamide] | 0.61
7 | COc1cccc(OC)c1-n1c(NS(=O)(=O)[C@H](C)[C@@H](OC)c2ccc(Cl)cn2)nnc1-c1cccnc1 (single isomer, unassigned) [Example 530.0, (1S,2R)-1-(5-chloro-2-pyridinyl)-N-(4-(2,6-dimethoxyphenyl)-5-(3-pyridinyl)-4H-1,2,4-triazol-3-yl)-1-methoxy-2-propanesulfonamide or (1R,2S)-1-(5-chloro-2-pyridinyl)-N-(4-(2,6-dimethoxyphenyl)-5-(3-pyridinyl)-4H-1,2,4-triazol-3-yl)-1-methoxy-2-propanesulfonamide] | 48.5
8 | COc1cccc(OC)c1-n1c(NS(=O)(=O)[C@@H](C)[C@@](C)(F)c2ncc(C#N)cn2)nnc1-c1cncc(C)c1 (single isomer, unassigned) [Example 537.0] | 57
9 | COc1cccc(OC)c1-n1c(NS(=O)(=O)[C@@H](C)[C@@](C)(F)c2ncc(C#N)cn2)nnc1-c1cncc(C)c1 (single isomer, unassigned) [Example 538.0] | 4.5
10 | COc1cccc(OC)c1-n1c(NS(=O)(=O)[C@H](C)[C@@H](OC)c2ccc(C#N)cn2)nnc1-c1cncc(C)c1 (single isomer, unassigned) [Example 552.0] | 0.28
11 | COc1cccc(OC)c1-n1c(NS(=O)(=O)[C@H](C)[C@@H](OC)c2ccc(C#N)cn2)nnc1-c1cncc(C)c1 (single isomer, unassigned) [Example 553.0] | 41
12 | COc1cccc(OC)c1-n1c(NS(=O)(=O)[C@H](C)[C@@H](OC)c2ccc(C#N)cn2)nnc1-c1cncc(C)c1 (single isomer, unassigned) [Example 554.0] | 2.7
13 | COc1cccc(OC)c1-n1c(NS(=O)(=O)[C@H](C)[C@@H](OC)c2ccc(C#N)cn2)nnc1-c1cncc(C)c1 (single isomer, unassigned) [Example 555.0] | 41
14 | COc1cccc(OC)c1-n1c(NS(=O)(=O)[C@H](C)[C@@H](OC)c2ncc(Cl)cn2)nnc1-c1cncc(C)c1 (single isomer, unassigned) [Example 558.0] | 30
15 | COc1cccc(OC)c1-n1c(NS(=O)(=O)[C@H](C)[C@@H](OC)c2ncc(Cl)cn2)nnc1-c1cncc(C)c1 (single isomer, unassigned) [Example 559.0] | 120
16 | COc1cccc(OC)c1-n1c(NS(=O)(=O)[C@H](C)[C@@H](OC)c2ncc(Cl)cn2)nnc1-c1cncc(C)c1 (single isomer, unassigned) [Example 560.0] | 0.88
17 | CCO[C@@H](c1cnc(C)cn1)[C@@H](C)S(=O)(=O)Nc1nnc(-c2cncc(C)c2)n1-c1c(OC)cccc1OC (single isomer, unassigned) [Example 565.0, (1S,2R)—N-(4-(2,6-dimethoxyphenyl)-5-(5-methyl-3-pyridinyl)-4H-1,2,4-triazol-3-yl)-1-ethoxy-1-(5-methyl-2-pyrazinyl)-2-propanesulfonamide or (1R,2S)—N-(4-(2,6-dimethoxyphenyl)-5-(5-methyl-3-pyridinyl)-4H-1,2,4-triazol-3-yl)-1-ethoxy-1-(5-methyl-2-pyrazinyl)-2-propanesulfonamide] | 100
18 | CCO[C@@H](c1cnc(C)cn1)[C@@H](C)S(=O)(=O)Nc1nnc(-c2cncc(C)c2)n1-c1c(OC)cccc1OC (single isomer, unassigned) [Example 566.0, (1S,2R)—N-(4-(2,6-dimethoxyphenyl)-5-(5-methyl-3-pyridinyl)-4H-1,2,4-triazol-3-yl)-1-ethoxy-1-(5-methyl-2-pyrazinyl)-2-propanesulfonamide or (1R,2S)—N-(4-(2,6-dimethoxyphenyl)-5-(5-methyl-3-pyridinyl)-4H-1,2,4-triazol-3-yl)-1-ethoxy-1-(5-methyl-2-pyrazinyl)-2-propanesulfonamide] | 62
19 | COc1cccc(OC)c1-n1c(NS(=O)(=O)[C@H](C)[C@@H](O)c2cnc(C)cn2)nnc1-c1cncc(C)c1 (single isomer, unassigned) [Example 568.0, (1S,2R)—N-(4-(2,6-dimethoxyphenyl)-5-(5-methyl-3-pyridinyl)-4H-1,2,4-triazol-3-yl)-1-hydroxy-1-(5-methyl-2-pyrazinyl)-2-propanesulfonamide or (1R,2S)—N-(4-(2,6-dimethoxyphenyl)-5-(5-methyl-3-pyridinyl)-4H-1,2,4-triazol-3-yl)-1-hydroxy-1-(5-methyl-2-pyrazinyl)-2-propanesulfonamide] | 7.1
20 | COc1cccc(OC)c1-n1c(NS(=O)(=O)[C@H](C)[C@@H](O)c2cnc(C)cn2)nnc1-c1cncc(C)c1 (single isomer, unassigned) [Example 569.0, (1S,2R)—N-(4-(2,6-dimethoxyphenyl)-5-(5-methyl-3-pyridinyl)-4H-1,2,4-triazol-3-yl)-1-hydroxy-1-(5-methyl-2-pyrazinyl)-2-propanesulfonamide or (1R,2S)—N-(4-(2,6-dimethoxyphenyl)-5-(5-methyl-3-pyridinyl)-4H-1,2,4-triazol-3-yl)-1-hydroxy-1-(5-methyl-2-pyrazinyl)-2-propanesulfonamide] | 0.26
21 | COc1cccc(-c2nnc(NS(=O)(=O)[C@@H](C)[C@H](O)c3cnc(C)cn3)n2-c2c(OC)cccc2OC)n1 (single isomer, unassigned) [Example 577.0, (1R,2S)—N-(4-(2,6-dimethoxyphenyl)-5-(6-methoxy-2-pyridinyl)-4H-1,2,4-triazol-3-yl)-1-hydroxy-1-(5-methyl-2-pyrazinyl)-2-propanesulfonamide or (1S,2R)—N-(4-(2,6-dimethoxyphenyl)-5-(6-methoxy-2-pyridinyl)-4H-1,2,4-triazol-3-yl)-1-hydroxy-1-(5-methyl-2-pyrazinyl)-2-propanesulfonamide] | 0.24
